Source: publication PMC8158484, “Activity Components from Gynostemma pentaphyllum for Preventing Hepatic Fibrosis and of Its Molecular Targets by Network Pharmacology Approach” (Molecules, 2021)
Like-named read-outs stand apart in the source and are kept apart here.

Tests used:
Format in all cases: cell-based, human
t-HSC/Cl-6 cells [1] = assay: MTT cell proliferation assay, activated t-HSC/Cl-6 cells; conditions: mean ± SD, read-out: Inhibitory activity (IC50) in activated t-HSC/Cl-6 cells
Description: (§1) The cell viability was assessed with the MTT assay. The human hepatic stellate cells (t-HSC/Cl-6) and human normal liver cells (LO2) bought from the Cell Bank of Chinese Academy of Sciences (Shanghai, China) were seeded in 96-well plates for 24 h and cultured with high glucose including 10% fetal bovine serum, and 1% penicillin/streptomycin were used to culture cells at 37 °C under 5% CO2 and then were treated with serial dilutions of the compounds (25, 50, 100, 200, 400 μM) for another 36 h. For MTT assay, ten microliters of MTT reagent ([…]) was added to each well after removing all the liquid in the wells, and incubated at 37 °C in a humidified atmosphere of 5% CO2 air for 4 h. At the end of incubation, the growth medium was removed and replaced with 100 μL of DMSO at room temperature and agitating on a vortex for 20 min. The absorbance was determined at 490 nm as reference on a Bio-Rad micro-plate reader.

LO2 cells [2] = assay: MTT cell proliferation assay, LO2 normal liver cells; conditions: for IC50: 36 h, MTT, read-out: Inhibitory activity (IC50) in LO2 cells
Description: as §1

t-HSC/Cl-6 cells [3] = assay: Cell apoptosis analysis: cell morphology and DAPI nuclear staining, t-HSC/Cl-6 cells; conditions: 36 h
Description: (§2) For cell morphology analysis, t-HSC/C1-6 cells and LO2 cells were grown in 6-well plates. After 24 h, compound 19 was incubated with the cells for another 36 h and 0.1% DMSO was used to culture control cells. […] Then the cells were rinsed with PBS and resuspended in 1 mL of 0.1% DAPI prepared in methanol for 15 min. PBS was used to wash the cells three times. Nuclear morphology was observed by a fluorescent microscope (Olympus BH-2, Osaka, Japan).

LO2 cells [4] = assay: Cell apoptosis analysis: cell morphology and DAPI nuclear staining, LO2 cells; conditions: 36 h
Description: as §2

t-HSC/Cl-6 cells [5] = assay: Western blotting of cell cycle, PI3K/Akt and caspase proteins
Description: RIPA lysis buffer was used to extract total cellular proteins, and the protein concentration was determined by bicinchoninic acid. Protein samples (20 μg/lane) were loaded onto 10% SDS–PAGE gels for electrophoresis and then the transmembrane was conducted. After that, blocking of polyvinylidene fluoride (PVDF) membrane was carried out using 5% bovine serum albumin in Tris-buffered saline Tween-20 (TBST) buffer for 1 h, subsequently probing with a primary antibody (1:1000 dilution), such as p-PI3K, p-Akt, Cl-caspase-3, Cl-caspase-9, Cl-PARP, CDK4, Cyclin D1, or P21, at 4 °C overnight. Then, TBTS was used to wash the membrane. The PVDF membranes were incubated with the secondary antibody (1:5000 dilution) for 2 h. X-ray films were employed to develop the signals.

t-HSC/C1-6 cells = assay: Cell cycle analysis by flow cytometry (propidium iodide); conditions: 50 μM compound, 36 h; control group 1.04%
Description: The cell cycle analysis was performed using a previous method. The t-HSC/C1-6 cells were cultured in the presence of 50 μM compound 19 and DMSO for 12 h, 24 h, and 36 h. Briefly, treated and untreated cells were trypsinized, harvested, and washed with PBS. Then the cells were fixed with 75% ethanol overnight at […]. Fixed cells were washed with PBS and stained with propidium iodide solution in the dark for 4 h. Cell cycle distribution was analyzed using FACScan (Becton Dickinson Immunocytometry Systems, San Jose, CA, USA).

[6] = Rattus norvegicus, T-HSC/Cl-6, 36 h
[7] = dose-dependent manner as printed

Row | SMILES | IC50 (t-HSC/Cl-6 cells [1]; [6]) [µM] | IC50 (LO2 cells [2]; Homo sapiens, L02) [µM] | other results
1 | C=C(C)OCC1OC(OC2CCC3(C)C(CCC4(C)C3CCC3C(C5(O)CC(C=C(C)C)OC5=O)CCC34C)C2(C)C)C(OC2OC(C)C(O)C(O)C2O)C(OC2OCC(O)C(O)C2O)C1O (centres unmarked) [Compound 4] | 126 ± 9.7 | > 200 | –
2 | CC(C)=CC1CC(O)(C2CCC3(C)C2CCC2C4(C)CCC(OC5OC(CO)C(O)C(OC6OCC(O)C(O)C6O)C5OC5OC(C)C(O)C(O)C5O)C(C)(C)C4CCC23C)C(O)O1 (centres unmarked) [Compound 8] | 68.8 ± 3.2 | > 200 | –
3 | C=C(C)C=CCC(O)(COC1OC(CO)C(O)C(O)C1O)C1CCC2(C)C1CCC1C3(C)CCC(OC4OC(CO)C(O)C(OC5OCC(O)C(O)C5O)C4OC4OCC(O)C(O)C4O)C(C)(C)C3CCC12C (centres unmarked) [Compound 18] | 58 ± 2.9 | > 200 | –
4 | CC(C)=CCCC(O)(COC1OC(CO)C(O)C(O)C1O)C1CCC2(C)C1CCC1C3(C)CCC(OC4OC(CO)C(O)C(OC5OCC(O)C(O)C5O)C4OC4OC(C)C(O)C(O)C4O)C(C)(C)C3CCC12C (centres unmarked) [Compound 12] | > 200 | > 200 | –
5 | CC(C)=CCCC(O)(COC1OC(CO)C(O)C(O)C1O)C1CCC2(C)C1CCC1C3(CO)CCC(OC4OCC(O)C(OC5OCC(O)C(O)C5O)C4OC4OC(C)C(O)C(O)C4O)C(C)(C)C3CCC12C (centres unmarked) [Compound 15] | > 200 | > 200 | –
6 | CC(C)=CCCC(O)(COC1OC(CO)C(O)C(O)C1O)C1CCC2(C)C1CCC1C3(C)CCC(OC4OC(CO)C(O)C(OC5OCC(O)C(O)C5O)C4OC4OC(C)C(O)C(O)C4O)C(C)(C)C3CCC12C (centres unmarked) [Compound 13] | – | – | IC50 (t-HSC/Cl-6 cells [1]; 36 h): 106 ± 2.6 µM; IC50 (LO2 cells [2]): > 200 µM
7 | CCCCOC1OC(C=C(C)C)CC1(O)C1CCC2(C)C1CCC1C3(C)CCC(OC4OC(CO)C(O)C(OC5OCC(O)C(O)C5O)C4OC4OC(C)C(O)C(O)C4O)C(C)(C)C3CCC12C (centres unmarked) [Compound 19] | 28.1 ± 2 | > 200 | Nuclear morphology of t-HSC/Cl-6 cells (DAPI staining) (t-HSC/Cl-6 cells [3]): Typical apoptotic nuclear changes were observed; Cell morphology (apoptosis) of t-HSC/Cl-6 cells (t-HSC/Cl-6 cells [3]; phase contrast microscopy): apoptotic bodies and cell shrinkage were observed; Nuclear morphology of LO2 cells (DAPI staining) (LO2 cells [4]): did not appear to have any specific effect; Cell morphology of LO2 cells (LO2 cells [4]; phase contrast microscopy): no shrinkage was seen; Cytotoxicity to LO2 cells (LO2 cells [2]; in words): nontoxic; cyclin D1 expression (t-HSC/Cl-6 cells [5]): decreased; p21 level (t-HSC/Cl-6 cells [5]): significant accumulation; Expression of phosphorylated-Akt (t-HSC/Cl-6 cells [5]; as time increased): inhibited; Expression of phosphorylated-PI3K (t-HSC/Cl-6 cells [5]; as time increased): inhibited; Expression level of cleaved caspase-3 (t-HSC/Cl-6 cells [5]; [7]): activated; Expression level of cleaved caspase-9 (t-HSC/Cl-6 cells [5]; [7]): activated; Cells in the subG1 phase (t-HSC/C1-6 cells): 38.63%
8 | C=C(C)OCC1OC(OC2CCC3(C)C(CCC4(C)C3CCC3C(C5(O)CC(C=C(C)C)OC5O)CCC34C)C2(C)C)C(OC2OC(C)C(O)C(O)C2O)C(OC2OCC(O)C(O)C2O)C1O (centres unmarked) [Compound 5] | > 200 | > 200 | –
9 | CC(C)=CC1CC(O)(C2CCC3(C)C2CCC2C4(C)CCC(OC5OC(CO)C(O)C(OC6OCC(O)C(O)C6O)C5OC5OC(C)C(O)C(O)C5O)C(C)(C)C4CCC23C)C(=O)O1 (centres unmarked) [Compound 9] | 114 ± 7.8 | > 200 | –
10 | CC(C)=CCCC(O)(COC1OC(CO)C(O)C(O)C1O)C1CCC2(C)C1CCC1C3(CO)CCC(OC4OC(CO)C(O)C(OC5OCC(O)C(O)C5O)C4OC4OC(C)C(O)C(O)C4O)C(C)(C)C3CCC12C (centres unmarked) [Compound 14] | > 200 | > 200 | –
11 | CC(C)=CC1CC(O)(C2CCC3(C)C2CCC2C4(C)CCC(OC5OC(CO)C(O)C(OC6OCC(O)C(O)C6O)C5OC5OC(C)C(O)C(O)C5O)C(C)(C)C4CCC23C)C(=O)O1 (centres unmarked) [Compound 6] | – | – | IC50 (t-HSC/Cl-6 cells [1]; 36 h): 99.9 ± 4.5 µM; IC50 (LO2 cells [2]): > 200 µM
12 | CC(C)=CCCC(O)(CO)C1CCC2(C)C1CCC1C3(C=O)CCC(OC4OCC(O)C(O)C4OC4OC(C)C(O)C(O)C4O)C(C)(C)C3CCC12C (centres unmarked) [Compound 2] | 50.4 ± 1.4 | > 200 | –
13 | C=C(C)OCC1OC(OC2CCC3(C)C(CCC4(C)C3CCC3C(C(O)(CCC=C(C)C)COC5OC(CO)C(O)C(O)C5O)CCC34C)C2(C)C)C(OC2OC(C)C(O)C(O)C2O)C(OC2OCC(O)C(O)C2O)C1O (centres unmarked) [Compound 3] | > 200 | > 200 | –
14 | CC(C)=CCCC(O)(CO)C1CCC2(C)C1CCC1C3(C)CCC(OC4OC(CO)C(O)C(OC5OCC(O)C(O)C5O)C4OC4OC(C)C(O)C(O)C4O)C(C)(C)C3CCC12C (centres unmarked) [Compound 7] | 152 ± 7.4 | > 200 | –
15 | CC(C)=CCCC(O)(COC1OC(CO)C(O)C(O)C1O)C1CCC2(C)C1CCC1C3(C=O)CCC(OC4OCC(O)C(OC5OC(CO)C(O)C(O)C5O)C4OC4OC(C)C(O)C(O)C4O)C(C)(C)C3CCC12C (centres unmarked) [Compound 10] | > 200 | > 200 | –
16 | CC(C)=CCCC(O)(COC1OC(CO)C(O)C(O)C1O)C1CCC2(C)C1CCC1C3(C)CCC(OC4OC(CO)C(O)C(OC5OCC(O)C(O)C5O)C4OC4OCC(O)C(O)C4O)C(C)(C)C3CCC12C (centres unmarked) [Compound 1] | > 200 | > 200 | –
17 | CC(=O)OCC1OC(OC2CCC3(C)C(CCC4(C)C3CCC3C(C5(O)CC(C=C(C)C)OC5=O)CCC34C)C2(C)C)C(OC2OC(C)C(O)C(O)C2O)C(OC2OCC(O)C(O)C2O)C1O (centres unmarked) [Compound 17] | 66.1 ± 3.8 | > 200 | –
18 | CCCCOC1OC(C=C(C)C)CC1(O)C1CCC2(C)C1CCC1C3(C)CCC(OC4OCC(O)C(OC5OCC(O)C(O)C5O)C4OC4OC(C)C(O)C(O)C4O)C(C)(C)C3CCC12C (centres unmarked) [Compound 16] | 44.7 ± 1 | > 200 | –
19 | CC(C)=CCCC(O)(CO)C1CCC2(C)C1CCC1C3(C=O)CCC(OC4OCC(O)C(OC5OCC(O)C(O)C5O)C4OC4OC(C)C(O)C(O)C4O)C(C)(C)C3CCC12C (centres unmarked) [Compound 11] | 43.6 ± 2.7 | > 200 | –
